Source: patent publication US20180110824A1, “Macrocyclic Modulators of the Ghrelin Receptor” (Ocera Therapeutics, Inc., priority 2016, published 2018)
Where two headings read alike, the source gives them in different places.

Assays:
[1] = target: T1, human growth hormone secretagogue receptor (hGHS-R1a) (Homo sapiens, UniProt Q92847); assay: Competitive radioligand binding assay (ghrelin receptor), [125I]-ghrelin displacement on GHS-R/HEK 293 membranes
T1 construct: purchased PerkinElmer BioSignal #RBHGHSM; host or cells: HEK-293, stably transfected

[2] = target: T2, human ghrelin receptor (hGHS-R1a) (Homo sapiens, UniProt Q92847); assay: Aequorin functional assay (ghrelin receptor), CHO-K1 cells co-expressing Gα16 and aequorin; format: cell-based; conditions: Table 4; functional (agonist) activity; TFA salts unless otherwise noted; read-out: EC50
T2 construct: host or cells: CHO-K1 co-expressing Gα16 and mitochondrially targeted aequorin
Method: This cell line is typically constructed by transfection of the human ghrelin receptor into CHO-K1 cells co-expressing Gα16 and the mitochondrially targeted Aequorin (Ref #ES-WT-A5). • 1. […] Assay buffer: DMEM (Dulbecco's Modified Eagles Medium) containing 0.1% BSA (bovine serum albumin; pH 7.0). • 3. Coelenterazine (Molecular Probes, Leiden, The Netherlands). • Final test concentrations (N=8) for compounds of the invention: 10, 1, 0.3, 0.1, 0.03, 0.01, 0.003, 0.001 μM.
Stock solutions of compounds (10 mM in 100% DMSO) were provided frozen on dry ice and stored at −20° C. prior to use. […] Assay plates were then prepared by appropriate dilution in DMEM medium containing 0.1% BSA. Under these conditions, the maximal final DMSO concentration in the assay was <0.6%.
AequoScreen™ cells were collected from culture plates with Ca^2+ and Mg^2+-free phosphate buffered saline (PBS) supplemented with 5 mM EDTA, pelleted for 2 min at 1000×g re-suspended in DMEM—Ham's F12 containing 0.1% BSA at a density of 5×10^6 cells/mL, and incubated O/N at rt in the presence of 5 μM coelenterazine. After loading, cells were diluted with assay buffer to a concentration of 5×10^5 cells/mL.
For agonist testing, 50 μL of the cell suspension was mixed with 50 μL of the appropriate concentration of test compound or ghrelin (reference agonist) in 96-well plates (duplicate samples). Ghrelin (reference agonist) was tested at several concentrations concurrently with the test compounds in order to validate the experiment. The emission of light resulting from receptor activation in response to ghrelin or test compounds was recorded using the Hamamatsu FDSS 6000 reader (Hamamatsu Photonics K.K., Japan).
Results were expressed as Relative Light Units (RLU). […] EC50, Hill slope and % Emax values are reported.
• 1. Assay performed on CHO-K1 cells expressing the transfected, cloned human ghrelin receptor (hGHS-R1a) and Gα16. • 2. Suspended cells incubated O/N with coelenterazine. • 3. Stimulation of hGHS-R1a activates Gα16, causing […] Ca2+ release which ultimately leads to the oxidation of coelenterazine and the emission of a quantitative luminescent signal. • 4. Ghrelin was used as the positive control. • 5.

motilin receptor = motilin receptor (Homo sapiens, UniProt O43193); assay: Selectivity for the ghrelin receptor versus the motilin receptor; format: binding
Excerpt: The level of agonist activity and selectivity for representative compounds of the invention are shown below in Table 4.

[3] = Table 3B, binding activity at the human ghrelin receptor, read-out: Ki
[4] = Table 4, TFA salts unless otherwise noted, read-out: Ki
[5] = Binding activity at the human ghrelin receptor, [125I]-ghrelin displacement, read-out: Ki
[6] = [125I]-ghrelin displacement, GHS-R/HEK 293 membranes, class symbols, read-out: Binding Activity at the Human Ghrelin Receptor (Ki)

Chain of motilin receptor (O43193 whole entry, species assumed): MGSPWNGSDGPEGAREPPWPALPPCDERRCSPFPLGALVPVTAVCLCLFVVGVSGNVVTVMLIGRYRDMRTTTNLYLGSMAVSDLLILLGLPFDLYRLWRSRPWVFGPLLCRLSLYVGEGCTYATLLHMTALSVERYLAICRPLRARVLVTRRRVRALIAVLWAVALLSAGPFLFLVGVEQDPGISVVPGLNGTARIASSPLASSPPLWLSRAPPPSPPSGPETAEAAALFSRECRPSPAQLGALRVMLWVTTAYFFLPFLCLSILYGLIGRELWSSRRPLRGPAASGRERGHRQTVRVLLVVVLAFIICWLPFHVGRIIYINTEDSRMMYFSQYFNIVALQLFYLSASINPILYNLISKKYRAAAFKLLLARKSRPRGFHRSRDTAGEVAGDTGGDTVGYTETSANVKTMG
T1 sequence (Q92847 whole entry): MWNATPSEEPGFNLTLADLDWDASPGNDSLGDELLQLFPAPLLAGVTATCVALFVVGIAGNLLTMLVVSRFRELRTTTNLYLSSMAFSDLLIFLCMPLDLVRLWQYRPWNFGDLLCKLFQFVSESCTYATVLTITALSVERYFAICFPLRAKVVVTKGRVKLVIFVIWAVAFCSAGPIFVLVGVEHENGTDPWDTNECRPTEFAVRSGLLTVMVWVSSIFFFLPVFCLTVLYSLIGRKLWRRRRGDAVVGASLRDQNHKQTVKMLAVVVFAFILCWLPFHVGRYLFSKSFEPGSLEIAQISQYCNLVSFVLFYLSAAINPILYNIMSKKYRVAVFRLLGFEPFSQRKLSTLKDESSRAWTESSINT
T2 sequence (Q92847 whole entry): as above

Row | Ki [1, 4] [µM] | EC50 [2] [µM] | Selectivity (motilin receptor) | Compound | other results
1 | 0.0001 to 0.01 | > 1 |  | CCC(C)[C@@H]1NC[C@@H](C)Oc2ccccc2CCCNC(=O)[C@H](Cc2cccc(Cl)c2)NC(=O)C2(CCCC2)NC1=O (some centres unmarked) [368a] | Ki [1, 3]: 0.01 to 0.1 µM
2 | 0.1 to 1 | 0.1 to 1 |  | CC(C)[C@@H]1NCCOc2ccccc2CCCNC(=O)[C@@H](Cc2ccccc2)NC(=O)CN(C)C1=O [Compound 3] | Ki [1, 5]: 0.1 to 1 µM
3 |  |  | 3012/1 | CCCC1NCCOc2ccccc2CCCNC(=O)C(Cc2ccccc2)NC(=O)C(C)N(C)C1=O (centres unmarked) [Compound 4] | 
4 | 0.1 to 1 | 0.1 to 1 |  | CCC(C)C1NCCOc2ccccc2CCCNC(=O)C(Cc2ccccc2)NC(=O)C(C)NC1=O (centres unmarked) [compound 2] | Ki [1, 5]: 0.1 to 1 µM
5 | 0.1 to 1 | 0.1 to 1 |  | CCC[C@@H]1NCCOc2ccccc2CCCNC(=O)[C@@H](Cc2ccccc2)NC(=O)CN(CC)C1=O [compound 5] | Ki [1, 5]: 0.1 to 1 µM
6 |  |  | >1700/1 | CCC(C)C1NCCOc2ccccc2CCCNC(=O)C(Cc2ccccc2)NC(=O)C(C)N(C)C1=O (centres unmarked) [compound 15] | 
7 |  |  | >2000/1 | CC[C@@H](C)[C@@H]1NCCOc2ccccc2CCCNC(=O)[C@@H](Cc2ccccc2)NC(=O)[C@@H](C)N(C)C1=O [compound 16] | 
8 |  |  | >1700/1 | CC(C)C1NCCOc2ccccc2C=CCNC(=O)C(Cc2ccccc2)NC(=O)C(C)N(C)C1=O (centres unmarked) [compound 19] | 
9 |  |  | 1044/1 | CC(C)C[C@@H]1NCCOc2ccccc2/C=C/CNC(=O)[C@H](Cc2ccccc2Cl)NC(=O)C2(CCCC2)NC1=O [compound 20] | 
10 |  |  | 3039/1 | CCC(C)C1NCCOc2ccccc2CCCNC(=O)C(Cc2cccc(Cl)c2)NC(=O)C(C)N(C)C1=O (centres unmarked) [compound 24] | 
11 |  |  | 4900/1 | CCC(C)C1NCCOc2ccccc2CCCNC(=O)C(Cc2ccc3ccccc3c2)NC(=O)C(C)N(C)C1=O (centres unmarked) [compound 31] | 
12 |  |  | >1000/1 | CCC(C)C1NCCOc2ccccc2CCCNC(=O)C(Cc2cccs2)NC(=O)C(C)N(C)C1=O (centres unmarked) [compound 34] | 
13 | 0.01 to 0.1 | 0.001 to 0.1 |  | CCC(C)[C@@H]1NC[C@@H](C)Oc2ccccc2CCCNC(=O)[C@@H](Cc2ccccc2)NC(=O)[C@@H](C)N(C)C1=O (some centres unmarked) [compound 35] | Ki [1, 5]: 0.01 to 0.1 µM
14 |  | 0.1 to 1 |  | CCC(C)[C@@H]1NC[C@@H](C)Oc2ccccc2CCCNC(=O)[C@@H](Cc2ccccc2)NC(=O)[C@@H](C)N(C)C1=O (some centres unmarked) [compound 36] | Ki [1, 5]: 0.01 to 0.1 µM
15 |  |  | 3400/1 | CCCC1NCCOc2ccccc2C=CCNC(=O)C(Cc2ccccc2)NC(=O)C(C)N(C)C1=O (centres unmarked) [compound 39] | 
16 |  |  | >3300/1 | CCC(C)C1NCCOc2ccccc2C=CCNC(=O)C(Cc2ccccc2)NC(=O)C(C)N(C)C1=O (centres unmarked) [compound 40] | 
17 |  |  | 4300/1 | CCC(C)C1NCCOc2ccccc2CCCNC(=O)C(Cc2ccccc2)NC(=O)C(C)N(C)C1=O (centres unmarked) [compound 42] | 
18 |  |  | 3700/1 | CCC(C)C1NCCOc2ccccc2CCCNC(=O)C(Cc2ccccc2)NC(=O)C(C)N(CC)C1=O (centres unmarked) [compound 43] | 
19 | 0.1 to 1 | 0.001 to 0.1 |  | CC(C)C[C@@H]1NCCOc2ccccc2/C=C/CNC(=O)[C@H](CC(C)C)NC(=O)C2(CCCC2)NC1=O [compound 47] | Ki [1, 5]: 0.1 to 1 µM
20 | 0.01 to 0.1 | 0.1 to 1 |  | CC(C)C[C@@H]1NCCOc2ccccc2CCCNC(=O)[C@@H](Cc2ccccc2)NC(=O)C2(CCCC2)NC1=O [compound 97] | Ki [1, 5]: 0.1 to 1 µM
21 | 0.01 to 0.1 | 0.1 to 1 |  | CC(C)C[C@@H]1NCCOc2ccccc2CCCNC(=O)[C@H](Cc2ccccc2)NC(=O)C2(CC2)NC1=O [compound 111] | Ki [1, 5]: 0.1 to 1 µM
22 | 0.1 to 1 | 0.1 to 1 |  | CC(C)[C@@H]1NCCOc2ccccc2/C=C/CNC(=O)[C@H](Cc2ccccc2)NC(=O)C2(CCOCC2)NC1=O [compound 140] | Ki [1, 5]: 0.1 to 1 µM

Row | Ki [1, 4] [µM] | EC50 [2] [µM] | Selectivity (motilin receptor) | Compound | other results
23 | 0.01 to 0.1 | 0.001 to 0.1 |  | COc1ccc(C[C@@H]2NC(=O)C3(CCCC3)NC(=O)[C@H](CC(C)C)NCCOc3ccccc3/C=C/CNC2=O)cc1 [compound 156] | Ki [1, 6]: 0.01 to 0.1 µM
24 |  |  | 105/1 | CCC(C)C1NCCOc2ccccc2CCCNC(=O)C(CC(C)C)NC(=O)C(C)N(C)C1=O (centres unmarked) [compound 176] | 
25 | 0.01 to 0.1 | > 1 |  | C[C@@H]1C(=O)N[C@H](Cc2ccccc2)C(=O)NCCCc2ccccc2OCCN2CCCC[C@H]2C(=O)N1C [compound 226] | Ki ([1]; Table 3E, read-out: Ki): 0.01 to 0.1 µM; Ki [1, 6]: 0.01 to 0.1 µM
26 | 0.0001 to 0.01 | 0.001 to 0.1 |  | C[C@@H]1C(=O)N[C@H](Cc2ccc(Cl)cc2)C(=O)NCCCc2ccccc2OCCN[C@@H](C2CC2)C(=O)N1C [compound 299] | Ki [1, 3]: 0.0001 to 0.01 µM
27 | 0.0001 to 0.01 | 0.001 to 0.1 |  | C[C@@H]1C(=O)N[C@H](Cc2c(F)c(F)c(F)c(F)c2F)C(=O)NCCCc2ccccc2OCCN[C@@H](C2CC2)C(=O)N1C [compound 318] | Ki [1, 3]: 0.0001 to 0.01 µM
28 | 0.0001 to 0.01 | 0.001 to 0.1 |  | C[C@@H]1C(=O)N[C@H](Cc2ccc(C(F)(F)F)cc2)C(=O)NCCCc2ccccc2OCCN[C@@H](C2CC2)C(=O)N1C [compound 322] | Ki [1, 3]: 0.0001 to 0.01 µM
29 |  |  | 346/1 | CC1(C)NC(=O)C2(CCCC2)NCCOc2ccccc2/C=C/CNC(=O)[C@H](Cc2cccc(Cl)c2)NC1=O [compound 334] | 
30 | 0.01 to 0.1 | 0.001 to 0.1 |  | C[C@@H]1C(=O)N[C@H](Cc2ccc(F)cc2)C(=O)NCC#Cc2ccccc2OCCN[C@@H](C2CC2)C(=O)N1C [compound 354] | Ki [1, 3]: 0.01 to 0.1 µM
31 | 0.1 to 1 |  | 35/1 | CC[C@H](C)[C@@H]1NCCCCCCCCNC(=O)[C@H](Cc2cccc(Cl)c2)NC(=O)C2(CCCC2)NC1=O [compound 363] | Ki [1, 3]: 0.1 to 1 µM
32 | 0.01 to 0.1 | 0.001 to 0.1 |  | CC1CNC(C2CC2)C(=O)N(C)C(C)C(=O)NC(Cc2ccc(F)cc2)C(=O)NCCCc2ccccc2O1 (centres unmarked) [compound 367] | Ki [1, 3]: 0.01 to 0.1 µM
33 |  |  | 400/1 | CCC(C)C1NCCOc2ccccc2C2CC2CNC(=O)C(Cc2cccc(Cl)c2)NC(=O)C2(CCCC2)NC1=O (centres unmarked) [compound 388] | 
34 |  |  |  | CC[C@H](C)[C@@H]1NCCOc2ccccc2CC(C)CNC(=O)[C@H](Cc2cccc(Cl)c2)NC(=O)C2(CCCC2)NC1=O (some centres unmarked) [compound 392] | Ki [1, 3]: 0.01 to 0.1 µM
35 |  |  |  | CC[C@H](C)[C@@H]1NCCOCCOCCNC(=O)[C@H](Cc2cccc(Cl)c2)NC(=O)C2(CCCC2)NC1=O [compound 393] | Ki [1, 3]: 0.1 to 1 µM
36 |  |  | 1700/1 | CC1COc2ccccc2CCCNC(=O)C(Cc2ccc(F)cc2)NC(=O)C(C)N(C)C(=O)C(C2CC2)N1 (centres unmarked) [compound 394] | 
37 |  |  |  | C[C@@H]1C(=O)N[C@H](Cc2cccc(Cl)c2)C(=O)NC/C=C/c2ccccc2OCCNC2(CCCC2)C(=O)N1C [compound 396] | Ki ([1]; Table 3C, read-out: Ki): 0.01 to 0.1 µM
38 |  |  |  | C[C@H]1C(=O)N[C@H](Cc2cccc(Cl)c2)C(=O)NC/C=C/c2ccccc2OCCNC2(CCCC2)C(=O)N1C [compound 397] | Ki ([1]; Table 3C, read-out: Ki): 0.1 to 1 µM
39 |  |  |  | C[C@@H]1C(=O)N[C@H](Cc2ccc(F)cc2)C(=O)NCCCCCOCCN[C@@H](C2CC2)C(=O)N1C [compound 398] | Ki [1, 3]: 0.1 to 1 µM
40 |  |  |  | C[C@@H]1C(=O)N[C@H](Cc2ccc(F)cc2)C(=O)NC/C=C\c2ccccc2OCCN[C@@H](C2CC2)C(=O)N1C [compound 400] | Ki [1, 3]: 0.01 to 0.1 µM
41 |  |  |  | CC(C)C[C@@H]1NC[C@@H](C)Oc2ccccc2CCCNC(=O)[C@H](Cc2cccc(Cl)c2)NC(=O)C2(CCCC2)NC1=O [compound 438] | Ki ([1]; Table 3D, read-out: Ki): 1 to 10 µM
42 |  |  |  | CC[C@H](C)[C@@H]1NCCOc2ccccc2CCCNC(=O)[C@@H](Cc2ccc(F)cc2)NC(=O)[C@@H](COCc2ccccc2)N(C)C1=O [compound 440] | Ki ([1]; Table 3D, read-out: Ki): 0.1 to 1 µM
43 |  |  |  | CCCC1NCCOc2ccccc2CCCNC(=O)C(C(C)c2ccccc2)NC(=O)CN(C)C1=O (centres unmarked) [compound 448] | Ki ([1]; Table 3D, read-out: Ki): 1 to 10 µM
44 |  |  |  | CC[C@H](C)[C@@H]1NCCOc2ncccc2CCCNC(=O)[C@H](Cc2cccc(Cl)c2)NC(=O)C2(CCCC2)NC1=O [compound 449] | Ki ([1]; Table 3D, read-out: Ki): 1 to 10 µM

Row | Compound | Ki [1, 4] [µM] | EC50 [2] [µM] | Selectivity (motilin receptor) | other results
45 | C[C@@H]1C(=O)N[C@H](Cc2ccc(O)c(C(C)(C)C)c2)C(=O)NCCCc2ccccc2OCCN[C@@H](C2CC2)C(=O)N1C [compound 311] | 0.01 to 0.1 |  | 21/1 | Ki [1, 3]: 0.01 to 0.1 µM
